One experiment deals with wild type HIV-1. Put plainly: microbe, parasite or virus in culture. Format: cell-based, human immunodeficiency virus type 1 (HIV-1). Particulars: Human immunodeficiency virus 1, Hela-JC53.
A further experiment concerns HIV-1 K103N-L100I mutant. The experiment is described as follows: microbe, parasite or virus in culture. Format: cell-based, human immunodeficiency virus type 1 (HIV-1). Particulars: Human immunodeficiency virus 1, HeLa, read-out: EC50 mutant K103N-L100I, mutant K103N-L100I.

EC50 data for 21 molecules are collected here from patent publication US8207178B2 (priority 2007, dated 2012).

By pEC50 is commonly meant the EC50 on a negative log10 scale, so that one unit is a factor of ten.

Molecules are shown by their SMILES. pEC50: −log10 of the molar value.

As for `Cc1cc(-c2ccnn2C)cc(C)c1Oc1nc(Nc2ccc(C#N)cc2)nc2ccn(C)c12` [Example 25, 4-(4-(2,6-Dimethyl-4-(1-methyl-1H-pyrazol-5-yl)phenoxy)-5-methyl-5H-pyrrolo[3,2-d]pyrimidin-2-ylamino)benzonitrile], the pEC50 in the experiment on wild type HIV-1 and with HIV-1 K103N-L100I mutant was above 9.00 throughout.
In the case of `Cc1cc(-c2ccc3nonc3c2)cc(C)c1Oc1nc(Nc2ccc(C#N)cc2)nc2ccn(C)c12` [Example 26, 4-(4-(4-(Benzo-[c][1,2,5]oxadiazol-5-yl)-2,6-dimethylphenoxy)-5-methyl-5H-pyrrolo[3,2-d]pyrimidin-2-ylamino) benzonitrile], the pEC50 in the experiment with wild type HIV-1 and in the experiment with HIV-1 K103N-L100I mutant was 8.00 to 9.00 throughout.
Take `Cc1cc(-c2ccc[nH]2)cc(C)c1Oc1nc(Nc2ccc(C#N)cc2)nc2ccn(C)c12` [Example 27, 4-(4-(2,6-Dimethyl-4-(1H pyrrol-2-yl)phenoxy)-5-methyl-5H-pyrrolo[3,2-d]pyrimidin-2-ylamino) benzonitrile]: the pEC50 with wild type HIV-1 was above 9.00; with HIV-1 K103N-L100I mutant, below 8.00.
Turning to `Cc1cc(-c2cnc(C#N)nc2)cc(C)c1Oc1nc(Nc2ccc(C#N)cc2)nc2ccn(C)c12` [Example 30, 5-(4-(2-(4-Cyanophenylamino)-5-methyl-5H-pyrrolo[3,2-d]pyrimidin-4-yloxy)-3,5-dimethylphenyl)pyrimidine-2-carbonitrile], the pEC50 in the experiment on wild type HIV-1 and in the experiment with HIV-1 K103N-L100I mutant was above 9.00 each time.
As for `Cc1cc(-c2ccncc2C#N)cc(C)c1Oc1nc(Nc2ccc(C#N)cc2)nc2c(Cl)cn(C)c12` [Example 31, 4-(4-(7-Chloro-2-(4-cyanophenylamino)-5-methyl-5H-pyrrolo[3,2-d]pyrimidin-4-yloxy)-3,5-dimethyl-phenyl)nicotinonitrile], the pEC50 in the experiment with wild type HIV-1 and in the experiment on HIV-1 K103N-L100I mutant was above 9.00 in each case.
In the case of `Cc1cc(-c2cn[nH]c2)cc(C)c1Oc1nc(Nc2ccc(C#N)cc2)nc2c(Cl)cn(C)c12` [Example 32, 4-(7-Chloro-4-(2,6-dimethyl-4-(1H-pyrazol-4-yl)phenoxy)-5-methyl-5H-pyrrolo[3,2-d]pyrimidin-2-ylamino)benzonitrile], the negative-log EC50 (pEC50) in the experiment with wild type HIV-1 was 8.00 to 9.00; with HIV-1 K103N-L100I mutant it was below 8.00.
On to `Cc1cc(-c2cccc(N(C)C)c2)cc(C)c1Oc1nc(Nc2ccc(C#N)cc2)nc2ccn(C)c12` [Example 33, 4-(4-(3′-(Dimethylamino)-3,5-dimethylbiphenyl-4-yloxy)-5-methyl-5H-pyrrolo [3,2-d]pyrimidin-2-ylamino) benzonitrile], for which the pEC50 in the experiment with wild type HIV-1 and with HIV-1 K103N-L100I mutant was below 8.00 in each case.
`Cc1cc(-c2ccsc2C#N)cc(C)c1Oc1nc(Nc2ccc(C#N)cc2)nc2ccn(C)c12` [Example 34, 3-(4-(2-(4-Cyanophenylamino)-5-methyl-5H-pyrrolo [3,2-d]pyrimidin-4-yloxy)-3,5-dimethylphenyl) thiophene-2-carbonitrile]: the pEC50 in the experiment with wild type HIV-1 and with HIV-1 K103N-L100I mutant was 8.00 to 9.00 each time.
`Cc1cc(-c2c(C)noc2C)cc(C)c1Oc1nc(Nc2ccc(C#N)cc2)nc2ccn(C)c12` [Example 35, 4-(4-(4-(3,5-Dimethylisoxazol-4-yl)-2,6-dimethylphenoxy)-5-methyl-5H-pyrrolo[3,2-d]pyrimidin-2-ylamino) benzonitrile]: the pEC50 with wild type HIV-1 and in the experiment on HIV-1 K103N-L100I mutant was 8.00 to 9.00 each time.
As to `Cc1cc(-c2cccc(C(=O)N(C)C)c2)cc(C)c1Oc1nc(Nc2ccc(C#N)cc2)nc2ccn(C)c12` [Example 36, 4′-(2-(4-Cyanophenylamino)-5-methyl-5H-pyrrolo[3,2-d]pyrimidin-4-yloxy)-N,N,3′,5′-tetramethylbiphenyl-3-carboxamide], the values for the pEC50 in the experiment with wild type HIV-1 and with HIV-1 K103N-L100I mutant were 8.00 to 9.00 and below 8.00, respectively.
The like results for `Cc1cc(-c2ccnc3ccccc23)cc(C)c1Oc1nc(Nc2ccc(C#N)cc2)nc2ccn(C)c12` [Example 37] were, in that order, 8.00 to 9.00 and below 8.00.
Take `Cc1cc(-c2cccc3ncccc23)cc(C)c1Oc1nc(Nc2ccc(C#N)cc2)nc2ccn(C)c12` [Example 38, 4-(4-(2,6-Dimethyl-4-(quinolin-5-yl)phenoxy)-5-methyl-5H-pyrrolo[3,2-d]pyrimidin-2-ylamino) benzonitrile]: the pEC50 in the experiment on wild type HIV-1 and in the experiment on HIV-1 K103N-L100I mutant was 8.00 to 9.00 in each case.
With `Cc1cc(-c2cccc3cnccc23)cc(C)c1Oc1nc(Nc2ccc(C#N)cc2)nc2ccn(C)c12` [Example 39, 4-(4-(4-(Isoquinolin-5-yl)-2,6-dimethylphenoxy)-5-methyl-5H-pyrrolo[3,2-d]pyrimidin-2-ylamino) benzonitrile], the pEC50 with wild type HIV-1 and in the experiment on HIV-1 K103N-L100I mutant was below 8.00 throughout.
As for `Cc1cc(-c2cncc3ccccc23)cc(C)c1Oc1nc(Nc2ccc(C#N)cc2)nc2ccn(C)c12` [Example 40, 4-(4-(4-(Isoquinolin-4-yl)-2,6-dimethylphenoxy)-5-methyl-5H-pyrrolo[3,2-d]pyrimidin-2-ylamino) benzonitrile], the pEC50 with wild type HIV-1 is 8.00 to 9.00; in the experiment on HIV-1 K103N-L100I mutant, below 8.00.
Consider `Cc1cc(-c2cnc3ccccc3c2)cc(C)c1Oc1nc(Nc2ccc(C#N)cc2)nc2ccn(C)c12` [Example 41, 4-(4-(2,6-Dimethyl-4-(quinolin-3-yl)phenoxy)-5-methyl-5H-pyrrolo[3,2-d]pyrimidin-2-ylamino) benzonitrile], for which the pEC50 is 8.00 to 9.00 with wild type HIV-1 and below 8.00 with HIV-1 K103N-L100I mutant.
The like results for `Cc1cc(-c2ccc(S(=O)(=O)N(C)C)cc2)cc(C)c1Oc1nc(Nc2ccc(C#N)cc2)nc2ccn(C)c12` [Example 42, 4′-(2-(4-Cyanophenylamino)-5-methyl-5H-pyrrolo[3,2-d]pyrimidin-4-yloxy)-N,N,3′,5′-tetramethylbiphenyl-4-sulfonamide] were, in that order, 8.00 to 9.00 and below 8.00.
For `Cc1cc(-c2cccc3cccnc23)cc(C)c1Oc1nc(Nc2ccc(C#N)cc2)nc2ccn(C)c12` [Example 43, 4-(4-(2,6-Dimethyl-4-(quinolin-8-yl)phenoxy)-5-methyl-5H-pyrrolo[3,2-d]pyrimidin-2-ylamino) benzonitrile], the pEC50 with wild type HIV-1 was 8.00 to 9.00; with HIV-1 K103N-L100I mutant, below 8.00.
For the molecule `Cc1cc(-c2ccc(C#N)cc2)cc(C)c1Oc1nc(Nc2ccc(C#N)cc2)nc2ccn(C)c12` [Example 44, 4′-(2-(4-Cyanophenylamino)-5-methyl-5H-pyrrolo[3,2-d]pyrimidin-4-yloxy)-3′,5′-dimethylbiphenyl-4-carbonitrile], the pEC50 with wild type HIV-1 and in the experiment with HIV-1 K103N-L100I mutant was 8.00 to 9.00 each time.
Regarding `Cc1cc(-c2ccnn2C)cc(C)c1Oc1nc(Nc2ccc(C#N)cc2)nc2nc[nH]c12` [Example 47, 4-(6-(2,6-Dimethyl-4-(1-methyl-1H-pyrazol-5-yl)phenoxy)-7H-purin-2-ylamino)benzonitrile], the results for the pEC50 in the experiment with wild type HIV-1 and in the experiment with HIV-1 K103N-L100I mutant were 8.00 to 9.00 and below 8.00, respectively.
In the case of `Cc1cc(-c2ccncn2)cc(C)c1Oc1nc(Nc2ccc(C#N)cc2)nc2ccn(C)c12` [Example 48, 4-(4-(2,6-Dimethyl-4-(pyrimidin-4-yl)phenoxy)-5-methyl-5H-pyrrolo [3,2-d]pyrimidin-2-ylamino)benzonitrile], the pEC50 in the experiment on wild type HIV-1 and with HIV-1 K103N-L100I mutant was 8.00 to 9.00 throughout.
Regarding `COc1ccc(Cn2cnc3nc(Nc4ccc(C#N)cc4)nc(Oc4c(C)cc(-c5ccc(C(N)=O)cc5)cc4C)c32)cc1` [Example 49, 4′-(2-(4-Cyanophenylamino)-7-(4-methoxybenzyl)-7H-purin-6-yloxy)-3′,5′-dimethylbiphenyl-4-carboxamide], the figures for the pEC50 with wild type HIV-1 and in the experiment on HIV-1 K103N-L100I mutant were 8.00 to 9.00 and below 8.00, respectively.
